Reference: patent US12016868B2, “Boronic acid derivatives and therapeutic uses thereof” (Qpex Biopharma, Inc., priority 2018, dated 2024)

How the values were obtained:
[1] = system: ECL1002; assay: Aztreonam potentiation assay (MPC@4) and aztreonam MIC; assay type: cell-based; settings: strain ECL1002
Procedure: (§1) The potency and spectrum of β-lactamase inhibitors (BLIs) was determined by assessing their aztreonam potentiation activity in a dose titration potentiation assay using strains of various bacteria that are resistant to aztreonam due to expression of various β-lactamases. Aztreonam is a monobactam antibiotic and is hydrolyzed by the majority of β-lactamases that belong to class A or C (but not class B or D). The potentiation effect was observed as the ability of BLI compounds to inhibit growth in the presence of sub-inhibitory concentration of aztreonam. […] Aztreonam was present in the test medium at 4 μg/mL. Compounds were tested at concentrations up to 20 μg/mL. In this assay, potency of compounds was reported as the minimum concentration of BLI required to inhibit growth of bacteria in the presence of 4 μg/mL of aztreonam (MPC@4). Table 1 summarizes the BLI potency of aztreonam potentiation (MPC@4) for various strains overexpressing class A (ESBL and KPC), and class C β-lactamases. Aztreonam MIC for each strain is also shown.

[2] = system: EC1010 CMY-6; assay: as above; assay type: cell-based; settings: strain EC1010 CMY-6
Procedure: as §1

[3] = system: KP1010 SHV-12; assay: as above; assay type: cell-based; settings: strain KP1010 SHV-12
Procedure: as §1

[4] = system: ec308 SHV-5; assay: as above; assay type: cell-based; settings: strain ec308 SHV-5
Procedure: as §1

[5] = system: KP1004 KPC-2; assay: as above; assay type: cell-based
Procedure: as §1

[6] = system: ec302 TEM-10; assay: as above; assay type: cell-based; settings: strain ec302 TEM-10
Procedure: as §1

[7] = system: KP1009 CTX-M-15; assay: as above; assay type: cell-based; settings: strain KP1009 CTX-M-15
Procedure: as §1

[8] = system: KP1005 CTX-M-14; assay: as above; assay type: cell-based
Procedure: as §1

[9] = system: KP1081 NDM-1; assay: Biapenem potentiation assay (MPC@1) and biapenem MIC; assay type: cell-based; settings: strain KP1081 NDM-1
Procedure: (§2) β-lactamase inhibitors were also tested for their ability to potentiate the carbapenem biapenem against strains producing class A (KPC), class D (OXA-48), and class B (metallo β-lactamases, NDM-1 and VIM-1) carbapenemases. The potentiation effect was observed as the ability of BLI compounds to inhibit growth in the presence of a sub-inhibitory concentration of biapenem. […] Biapenem was present in the test medium at 1 μg/mL. Compounds were tested at concentrations up to 20 μg/mL. In this assay, potency of compounds was reported as the minimum concentration of BLI required to inhibit growth of bacteria in the presence of 1 μg/mL of biapenem (MPC@1). Table 3 summarizes the BLI potency of biapenem potentiation (MPC@1) for four strains overexpressing class A (KPC), class D (OXA-48), and class B (NDM-1 and VIM-1) carbapenemases. Biapenem MIC for each strain is also shown.

[10] = system: KP1086 OXA-48; assay: as above; assay type: cell-based; settings: strain KP1086 OXA-48
Procedure: as §2

[11] = system: KP1004 KPC-2; assay: as above; assay type: cell-based; settings: strain KP1004 KPC-2
Procedure: as §2

[12] = system: strains producing class A (KPC), class D (OXA-48), and class B (NDM-1 and VIM-1) carbapenemases; assay: Biapenem MIC of the test strains (panel); assay type: cell-based; settings: span over all test strains of Table 3
Procedure: as §2

[13] = system: ECL1002; assay: Tigemonam potentiation assay (MPC@4) and tigemonam MIC; assay type: cell-based; settings: strain ECL1002
Procedure: (§3) Selected β-lactamase inhibitors were also tested for their ability to potentiate the monobactam tigemonam. […] Tigemonam was present in the test medium at 4 μg/mL. Compounds were tested at concentrations up to 20 μg/mL. In this assay, potency of compounds was reported as the minimum concentration of BLI required to inhibit growth of bacteria in the presence of 4 μg/mL of tigemonam (MPC@4). Table 2 summarizes the BLI potency of tigemonam potentiation (MPC@4) for various strains overexpressing class A (ESBL) and class C β-lactamases.

[14] = system: EC1010 CMY-6; assay: as above; assay type: cell-based; settings: strain EC1010 CMY-6
Procedure: as §3

[15] = system: KP1010 SHV-12; assay: as above; assay type: cell-based; settings: strain KP1010 SHV-12
Procedure: as §3

[16] = system: ec308 SHV-5; assay: as above; assay type: cell-based; settings: strain ec308 SHV-5
Procedure: as §3

[17] = system: ec302 TEM-10; assay: as above; assay type: cell-based; settings: strain ec302 TEM-10
Procedure: as §3

[18] = system: KP1009 CTX-M-15; assay: as above; assay type: cell-based; settings: strain KP1009 CTX-M-15
Procedure: as §3

[19] = system: KP1005 CTX-M-14; assay: as above; assay type: cell-based; settings: strain KP1005 CTX-M-14
Procedure: as §3

[20] = system: KP1054 VIM-1; assay: Biapenem potentiation assay (MPC@1) and biapenem MIC; assay type: cell-based; settings: minimum BLI concentration inhibiting growth with biapenem 1 μg/mL; strain KP1054 VIM-1; tested up to 20 μg/mL
Procedure: as §2

[21] = system: AB1053 OXA-72; assay: Meropenem potentiation assay (MPC@8) and meropenem MIC; assay type: cell-based, Acinetobacter baumannii; settings: A. baumannii strain AB1053 OXA-72
Procedure: (§4) β-lactamase inhibitors were also tested for their ability to potentiate the carbapenem meropenem against strains of Acinetobacter baumannii producing class D (OXA-23 and OXA-72) carbapenemases. […] Meropenem was present in the test medium at 8 μg/mL. Compounds were tested at concentrations up to 20 μg/mL. In this assay, potency of compounds was reported as the minimum concentration of BLI required to inhibit growth of bacteria in the presence of 8 μg/mL of meropenem (MPC@8).

[22] = system: AB1054 OXA-23; assay: as above; assay type: cell-based, Acinetobacter baumannii
Procedure: as §4

[23] = minimum BLI concentration inhibiting growth with tigemonam 4 μg/mL, tested up to 20 μg/mL
[24] = minimum BLI concentration inhibiting growth with aztreonam 4 μg/mL, tested up to 20 μg/mL
[25] = minimum BLI concentration inhibiting growth with biapenem 1 μg/mL, tested up to 20 μg/mL

C[C@H]1[C@H](NC(=O)/C(=N\OC(C)(C)C(=O)O)c2csc(N)n2)C(=O)N1S(=O)(=O)O [Aztreonam]
MIC ([1]; aztreonam alone): 64 µg/mL | MIC ([2]; aztreonam alone): > 128 µg/mL | MIC ([3]; aztreonam alone): 64 µg/mL | MIC ([4]; aztreonam alone): > 128 µg/mL | MIC ([5]; read-out: Aztreonam MIC): > 128 µg/mL | MIC ([6]; aztreonam alone): 128 µg/mL | MIC ([7]; aztreonam alone): > 128 µg/mL | MIC ([8]; read-out: Aztreonam MIC): > 128 µg/mL

C[C@@H](O)[C@H]1C(=O)N2C(C(=O)[O-])=C(SC3Cn4cnc[n+]4C3)[C@H](C)[C@H]12 (stereo partly drawn) [Biapenem]
MIC ([9]; biapenem alone): 16 µg/mL | MIC ([10]; biapenem alone): 16 µg/mL | MIC ([11]; biapenem alone): 32 µg/mL | MIC [12]: 16 to 32 µg/mL

COc1ccc2c(c1C(=O)O)OB(O)CC2Cn1cc(CO)nn1 (stereo not drawn) [Compound 16, 2-hydroxy-4-[[4-(hydroxymethyl)triazol-1-yl]methyl]-7-methoxy-3,4-dihydro-1,2-benzoxaborinine-8-carboxylic Acid]
TIG MPC4 ECL1002 [13, 23]: X (X = MPC@4 ≤ 5 μg/mL) | TIG MPC4 CMY-6 EC1010 [14, 23]: X (X = MPC@4 ≤ 5 μg/mL) | TIG MPC4 SHV-12 KP1010 [15, 23]: X (X = MPC@4 ≤ 5 μg/mL) | TIG MPC4 SHV-5 ec308 [16, 23]: X (X = MPC@4 ≤ 5 μg/mL) | TIG MPC4 TEM-10 ec302 [17, 23]: Y (Y = 5 μg/mL < MPC@4 ≤ 20 μg/mL) | TIG MPC4 CTX-M-15 KP1009 [18, 23]: X (X = MPC@4 ≤ 5 μg/mL) | TIG MPC4 CTX-M-14 KP1005 [19, 23]: Y (Y = 5 μg/mL < MPC@4 ≤ 20 μg/mL) | AZT MPC4 ECL1002 [1, 24]: X (X = MPC@4 ≤ 5 μg/mL) | AZT MPC4 CMY-6 EC1010 [2, 24]: X (X = MPC@4 ≤ 5 μg/mL) | AZT MPC4 SHV-12 KP1010 [3, 24]: X (X = MPC@4 ≤ 5 μg/mL) | AZT MPC4 SHV-5 ec308 [4, 24]: X (X = MPC@4 ≤ 5 μg/mL) | AZT MPC4 KPC-2 KP1004 ([5]; minimum BLI concentration inhibiting growth with aztreonam 4 μg/mL, strain KP1004 KPC-2, tested up to 20 μg/mL): X (X = MPC@4 ≤ 5 μg/mL) | AZT MPC4 TEM-10 ec302 [6, 24]: X (X = MPC@4 ≤ 5 μg/mL) | AZT MPC4 CTX-M-15 KP1009 [7, 24]: X (X = MPC@4 ≤ 5 μg/mL) | AZT MPC4 CTX-M-14 KP1005 ([8]; minimum BLI concentration inhibiting growth with aztreonam 4 μg/mL, strain KP1005 CTX-M-14, tested up to 20 μg/mL): X (X = MPC@4 ≤ 5 μg/mL) | BPM MPC1 KP1081 NDM-1 [9, 25]: Y (Y = 5 μg/mL < MPC@1 ≤ 20 μg/mL) | BPM MPC1 OXA-48 KP1086 [10, 25]: Y (Y = 5 μg/mL < MPC@1 ≤ 20 μg/mL) | BPM MPC1 KP1004 KPC-2 [11, 25]: X (X = MPC@1 ≤ 5 μg/mL) | BPM MPC1 KP1054 VIM-1 [20]: Y (Y = 5 μg/mL < MPC@1 ≤ 20 μg/mL) | MPM MPC8 AB1053 OXA-72 ([21]; minimum BLI concentration inhibiting growth with meropenem 8 μg/mL, tested up to 20 μg/mL): X (X = MPC@1 ≤ 5 μg/mL) | MPM MPC8 AB1054 OXA-23 ([22]; minimum BLI concentration inhibiting growth with meropenem 8 μg/mL, A. baumannii strain AB1054 OXA-23, tested up to 20 μg/mL): Y (Y = 5 μg/mL < MPC@1 ≤ 20 μg/mL)

C[C@@H](O)[C@H]1C(=O)N2C(C(=O)O)=C(S[C@@H]3CN[C@H](C(=O)N(C)C)C3)[C@H](C)[C@H]12 [Meropenem]
MIC ([21]; Acinetobacter baumannii, meropenem alone): > 64 µg/mL | MIC ([22]; Acinetobacter baumannii, read-out: Meropenem MIC): 32 µg/mL

CC1(C)[C@H](NC(=O)/C(=N\OCC(=O)O)c2csc(N)n2)C(=O)N1OS(=O)(=O)O [Tigemonam]
Tigemonam MIC ([13]; tigemonam alone): 32 µg/mL | Tigemonam MIC ([14]; tigemonam alone): 16 µg/mL | Tigemonam MIC ([15]; tigemonam alone): >64 µg/mL | Tigemonam MIC ([16]; tigemonam alone): >64 µg/mL | Tigemonam MIC ([17]; tigemonam alone): >64 µg/mL | Tigemonam MIC ([18]; tigemonam alone): >64 µg/mL | Tigemonam MIC ([19]; tigemonam alone): >64 µg/mL
